Experimental data as given in patent US11358952B2, “Substituted 4-aminoisoindoline-1,3-dione compounds, compositions thereof, and methods of treatment therewith” (Celgene Corporation, priority 2018, dated 2022).

These molecules were tested on SU-DHL-4 cell line (assay: SU-DHL-4 cell proliferation assay (Cell Titer-Glo viability)). Details: Homo sapiens; cell viability IC50 activity level, DLBCL cell line SU-DHL-4, 120 hours post-treatment; read-out: SU-DHL-4 Act.
Assay type: cell-based
Summary of the method: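 Viability read by ATP luminescence (Cell Titer-Glo) at the start and after 120 h of growth at 37°C in 5% CO2. DLBCL cells were seeded at 500 per well with compound across 0.5 nM–10 μM in 20 points, 0.1% DMSO. A four-parameter sigmoidal fit gave IC50 as 50% of DMSO control.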

Row | Structure (SMILES) | IC50
1 | Cc1cc(CNc2cccc3c2C(=O)N(C2CCC(=O)NC2=O)C3=O)ccc1CN1CCC(C(=O)N(C)C)CC1 (stereo not shown) [Cpd 79, 1-(4-((2-(2,6-dioxopiperidin-3-yl)-1,3-dioxoisoindolin-4-ylamino)methyl)-2-methylbenzyl)-N,N-dimethylpiperidine-4-carboxamide] | 200 to 500 nM
2 | Cc1cc(CNc2cccc3c2C(=O)N(C2CCC(=O)NC2=O)C3=O)ccc1CN1CC(c2cccnc2)C1 (stereo not shown) [Cpd 80, 2-(2,6-dioxopiperidin-3-yl)-4-(3-methyl-4-((3-(pyridin-3-yl)azetidin-1-yl)methyl)benzylamino)isoindoline-1,3-dione] | < 200 nM
3 | Cc1cc(CNc2cccc3c2C(=O)N(C2CCC(=O)NC2=O)C3=O)ccc1CN1CC(c2ccccn2)C1 (stereo not shown) [Cpd 81, 2-(2,6-dioxopiperidin-3-yl)-4-(3-methyl-4-((3-(pyridin-2-yl)azetidin-1-yl)methyl)benzylamino)isoindoline-1,3-dione] | 200 to 500 nM
4 | Cc1cc(CNc2cccc3c2C(=O)N(C2CCC(=O)NC2=O)C3=O)ccc1CN1CC(Oc2ccccc2)C1 (stereo not shown) [Cpd 82, 2-(2,6-dioxopiperidin-3-yl)-4-(3-methyl-4-((3-phenoxyazetidin-1-yl)methyl)benzylamino)isoindoline-1,3-dione] | 501 to 750 nM
5 | Cc1cc(CNc2cccc3c2C(=O)N(C2CCC(=O)NC2=O)C3=O)ccc1CN1CC(Oc2ccc(C#N)cc2)C1 (stereo not shown) [Cpd 83, 4-(1-(4-((2-(2,6-dioxopiperidin-3-yl)-1,3-dioxoisoindolin-4-ylamino)methyl)-2-methylbenzyl)azetidin-3-yloxy)benzonitrile] | < 200 nM
6 | CC1(C)CN(c2ccc(C#N)cn2)CCN1Cc1ccc(CNc2cccc3c2C(=O)N(C2CCC(=O)NC2=O)C3=O)cc1 (stereo not shown) [Cpd 84, 6-(4-(4-((2-(2,6-dioxopiperidin-3-yl)-1,3-dioxoisoindolin-4-ylamino)methyl)benzyl)-3,3-dimethylpiperazin-1-yl)nicotinonitrile] | < 200 nM
7 | CC1(C)CN(c2ccc(C#N)nc2)CCN1Cc1ccc(CNc2cccc3c2C(=O)N(C2CCC(=O)NC2=O)C3=O)cc1 (stereo not shown) [Cpd 85, 5-(4-(4-((2-(2,6-dioxopiperidin-3-yl)-1,3-dioxoisoindolin-4-ylamino)methyl)benzyl)-3,3-dimethylpiperazin-1-yl)picolinonitrile] | < 200 nM
8 | CC1(C)CN(c2ccc(C(N)=O)nc2)CCN1Cc1ccc(CNc2cccc3c2C(=O)N(C2CCC(=O)NC2=O)C3=O)cc1 (stereo not shown) [Cpd 86, 5-(4-(4-((2-(2,6-dioxopiperidin-3-yl)-1,3-dioxoisoindolin-4-ylamino)methyl)benzyl)-3,3-dimethylpiperazin-1-yl)picolinamide] | < 200 nM
9 | Cc1cc(CNc2cccc3c2C(=O)N(C2CCC(=O)NC2=O)C3=O)ccc1CN1CCC(OC(C)(C)C)CC1 (stereo not shown) [Cpd 87, 4-(4-((4-tert-butoxypiperidin-1-yl)methyl)-3-methylbenzylamino)-2-(2,6-dioxopiperidin-3-yl)isoindoline-1,3-dione] | < 200 nM
10 | CCC1(O)CCN(Cc2ccc(CNc3cccc4c3C(=O)N(C3CCC(=O)NC3=O)C4=O)cc2)CC1 (stereo not shown) [Cpd 88, 2-(2,6-dioxopiperidin-3-yl)-4-(4-((4-ethyl-4-hydroxypiperidin-1-yl)methyl)benzylamino)isoindoline-1,3-dione] | 501 to 750 nM
11 | CCOC1(C)CCN(Cc2ccc(CNc3cccc4c3C(=O)N(C3CCC(=O)NC3=O)C4=O)cc2)CC1 (stereo not shown) [Cpd 89, 2-(2,6-dioxopiperidin-3-yl)-4-(4-((4-ethoxy-4-methylpiperidin-1-yl)methyl)benzylamino)isoindoline-1,3-dione] | < 200 nM
12 | O=C1CCC(N2C(=O)c3cccc(NCc4ccc(CN5CCC6(CCCO6)CC5)cc4)c3C2=O)C(=O)N1 (stereo not shown) [Cpd 90, 4-(4-(1-oxa-8-azaspiro[4.5]decan-8-ylmethyl)benzylamino)-2-(2,6-dioxopiperidin-3-yl)isoindoline-1,3-dione] | < 200 nM
13 | Cc1cc(CN2CCC(C(C)(C)C)CC2)ccc1CNc1cccc2c1C(=O)N(C1CCC(=O)NC1=O)C2=O (stereo not shown) [Cpd 96, 4-(4-((4-tert-butylpiperidin-1-yl)methyl)-2-methylbenzylamino)-2-(2,6-dioxopiperidin-3-yl)isoindoline-1,3-dione] | < 200 nM
14 | Cc1cc(CN2CCC(C(C)C)CC2)ccc1CNc1cccc2c1C(=O)N(C1CCC(=O)NC1=O)C2=O (stereo not shown) [Cpd 100, 2-(2,6-dioxopiperidin-3-yl)-4-(4-((4-isopropylpiperidin-1-yl)methyl)-2-methylbenzylamino)isoindoline-1,3-dione] | 200 to 500 nM
15 | N#Cc1ccc(C2CN(Cc3ccc(CNc4cccc5c4C(=O)N(C4CCC(=O)NC4=O)C5=O)cc3F)C2)cc1 (stereo not shown) [Cpd 102, 4-(1-(4-((2-(2,6-dioxopiperidin-3-yl)-1,3-dioxoisoindolin-4-ylamino)methyl)-2-fluorobenzyl)azetidin-3-yl)benzonitrile] | < 200 nM
16 | Cc1cc(CN2CC(c3ccc(C#N)cc3)C2)ccc1CNc1cccc2c1C(=O)N(C1CCC(=O)NC1=O)C2=O (stereo not shown) [Cpd 105, 4-(1-(4-((2-(2,6-dioxopiperidin-3-yl)-1,3-dioxoisoindoliln-4-ylamino)methyl)-3-methylbenzyl)azetidin-3-yl)benzonitrile] | < 200 nM

More lines, now with the values ahead:

Row | IC50 | Structure (SMILES)
17 | < 200 nM | NC(=O)c1ccc(N2CCN(Cc3ccc(CNc4cccc5c4C(=O)N([C@@H]4CCC(=O)NC4=O)C5=O)cc3)CC2)cn1 [Cpd 91, (R)-5-(4-(4-((2-(2,6-dioxopiperidin-3-yl)-1,3-dioxoisoindolin-4-ylamino)methyl)benzyl)piperazin-1-yl)picolinamide]
18 | < 200 nM | CC(C)(C)C1CCN(Cc2ccc(CNc3cccc4c3C(=O)N(C3CCC(=O)NC3=O)C4=O)cc2F)CC1 (stereo not shown) [Cpd 92, 4-(4-((4-tert-butylpiperidin-1-yl)methyl)-3-fluorobenzylamino)-2-(2,6-dioxopiperidin-3-yl)isoindoline-1,3-dione]
19 | < 200 nM | CC(C)(C)N1CCN(Cc2ccc(CNc3cccc4c3C(=O)N(C3CCC(=O)NC3=O)C4=O)cc2F)CC1 (stereo not shown) [Cpd 93, 4-(4-((4-tert-butylpiperazin-1-yl)methyl)-3-fluorobenzylamino)-2-(2,6-dioxopiperidin-3-yl)isoindoline-1,3-dione]
20 | < 200 nM | CC(C)(C)C1CCN(Cc2ccc(CNc3cccc4c3C(=O)N(C3CCC(=O)NC3=O)C4=O)c(F)c2)CC1 (stereo not shown) [Cpd 94, 4-(4-((4-tert-butylpiperidin-1-yl)methyl)-2-fluorobenzylamino)-2-(2,6-dioxopiperidin-3-yl)isoindoline-1,3-dione]
21 | < 200 nM | CC(C)(C)N1CCN(Cc2ccc(CNc3cccc4c3C(=O)N(C3CCC(=O)NC3=O)C4=O)c(F)c2)CC1 (stereo not shown) [Cpd 95, 4-(4-((4-tert-butylpiperazin-1-yl)methyl)-2-fluorobenzylamino)-2-(2,6-dioxopiperidin-3-yl)isoindoline-1,3-dione]
22 | 501 to 750 nM | Cc1cc(CN2CCN(C(C)(C)C)CC2)ccc1CNc1cccc2c1C(=O)N(C1CCC(=O)NC1=O)C2=O (stereo not shown) [Cpd 97, 4-(4-((4-tert-butylpiperazin-1-yl)methyl)-2-methylbenzylamino)-2-(2,6-dioxopiperidin-3-yl)isoindolline-1,3-dione]
23 | < 200 nM | NC(=O)c1ccc(N2CCN(Cc3ccc(CNc4cccc5c4C(=O)N(C4CCC(=O)NC4=O)C5=O)cc3F)CC2)cn1 (stereo not shown) [Cpd 98, 5-(4-(4-((2-(2,6-dioxopiperidin-3-yl)-1,3-dioxoisoindolin-4-ylamino)methyl)-2-fluorobenzyl)piperazin-1-yl)picolinamide]
24 | < 200 nM | CC(C)C1CCN(Cc2ccc(CNc3cccc4c3C(=O)N(C3CCC(=O)NC3=O)C4=O)cc2F)CC1 (stereo not shown) [Cpd 99, 2-(2,6-dioxopiperidin-3-yl)-4-(3-fluoro-4-((4-isopropylpiperidin-1-yl)methyl)benzylamino)isoindoline-1,3-dione]
25 | 200 to 500 nM | Cc1cc(CN2CCN(c3ccc(F)cc3F)CC2)ccc1CNc1cccc2c1C(=O)N(C1CCC(=O)NC1=O)C2=O (stereo not shown) [Cpd 101, 4-(4-((4-(2,4-difluorophenyl)piperazin-1-yl)methyl)-2-methylbenzylamino)-2-(2,6-dioxopiperidin-3-yl)isoindoline-1,3-dione]
26 | < 200 nM | CC(C)C1CCN(Cc2ccc(CNc3cccc4c3C(=O)N(C3CCC(=O)NC3=O)C4=O)c(F)c2)CC1 (stereo not shown) [Cpd 103, 2-(2,6-dioxopiperidin-3-yl)-4-(2-fluoro-4-((4-isopropylpiperidin-1-yl)methyl)benzylamino)isoindoline-1,3-dione]
27 | < 200 nM | N#Cc1ccc(C2CN(Cc3ccc(CNc4cccc5c4C(=O)N(C4CCC(=O)NC4=O)C5=O)c(F)c3)C2)cc1 (stereo not shown) [Cpd 104, 4-(1-(4-((2-(2,6-dioxopiperidin-3-yl)-1,3-dioxoisoindolin-4-ylamino)methyl)-3-fluorobenzyl)azetidin-3-yl)benzonitrile]
28 | 200 to 500 nM | O=C1CCC(N2C(=O)c3cccc(NCc4ccc(CN5CCC(n6cccn6)CC5)c(F)c4)c3C2=O)C(=O)N1 (stereo not shown) [Cpd 106, 4-(4-((4-(1H-pyrazol-1-yl)piperidin-1-yl)methyl)-3-fluorobenzylamino)-2-(2,6-dioxopiperidin-3-yl)isoindoline-1,3-dione]
29 | < 200 nM | O=C1CCC(N2C(=O)c3cccc(NCc4ccc(CN5CCC(n6cccn6)CC5)cc4F)c3C2=O)C(=O)N1 (stereo not shown) [Cpd 107, 4-(4-((4-(1H-pyrazol-1-yl)piperidin-1-yl)methyl)-2-fluorobenzylamino)-2-(2,6-dioxopiperidin-3-yl)isoindoline-1,3-dione]
30 | < 200 nM | O=C1CCC(N2C(=O)c3cccc(NCc4ccc(CN5CCN(c6ccc(F)cc6F)CC5)cc4F)c3C2=O)C(=O)N1 (stereo not shown) [Cpd 108, 4-(4-((4-(2,4-difluorophenyl)piperazin-1-yl)methyl)-2-fluorobenzylamino)-2-(2,6-dioxopiperidin-3-yl)isoindoline-1,3-dione]
31 | < 200 nM | O=C1CCC(N2C(=O)c3cccc(NCc4ccc(CN5CCN(c6ccc(F)cc6F)CC5)c(F)c4)c3C2=O)C(=O)N1 (stereo not shown) [Cpd 109, 4-(4-((4-(2,4-difluorophenyl)piperazin-1-yl)methyl)-3-fluorobenzylamino)-2-(2,6-dioxopiperidin-3-yl)isoindoline-1,3-dione]
